In patent US5232923A, “Catechol derivatives and pharmaceutical preparations containing same” (Mitsui Toatsu Chemicals, Incorporated, priority 1988, dated 1993):
Where two headings read alike, the source gives them in different places.

Experiments:
[1] = tested on: production and secretion of NGF in mouse L-M cells; assay: Promoting activity for the production and secretion of NGF in mouse L-M cells (ELISA of medium after 24 h); type: cell-based; settings: for fold induction at 200 µM: Mus musculus, 24 h, read-out: NGF Increase Ratio; for NGF Concentration: 24 hours, mean of four determinations
Protocol: Promoting activity for the production and secretion of NGF in mouse L-M cells
The medium was cultured for 3 days at a temperature of 37° C. […] The sample of the derivative tested is contained in the medium at a prescribed concentration as illustrated in the Tables. […] Data are expressed as fold increase in NGF content of the medium over that cultivated in the absence of the derivative to be tested. […] Data are presented as the mean of four determinations. The results are illustrated in Tables 1-5.

[2] = tested on: production and secretion of NGF in mouse brain astroglial cells; assay: Promoting activity for the production and secretion of NGF in mouse brain astroglial cells (ELISA of medium after 24 h); type: cell-based; settings: for fold induction at 400 µM / fold induction at 200 µM: Mus musculus, 24 h, read-out: NGF Increase Ratio; for NGF Concentration: 24 hours
Protocol: Promoting activity for the production and secretion of NGF in mouse brain astroglial cells
The experiment was performed by inducing astroglial cells from the mouse forebrain to a culture system according to the procedures of S. Furukawa et al. which is described in Biochem. Biophys. Res. Commun., 136, 57-63 (1986).
Forebrains of 8-days old mice were dissected out and cut into small pieces. The pieces were washed with calcium- and magnesium-free phosphate-bufferedsaline (hereinafter abbreviated as PBS), treated with 0.25% trypsin containing PBS at 37° C. for 30 minutes and triturated with a Pasteur pipet to give a suspension. Cells and cell clumps were recovered by centrifugation at 200 xg for 5 minutes. They were cultured in Dulbecco modified Eagle's medium (a product of Gibco Co. hereinafter abbreviated as DMEM) containing 10% fetal calf serum, 50 μ units/ml of penicillin, and 50 μg/ml of streptomycin, for 10 to 14 days with medium changes every 3 days. After completing confluency, the cells were dissociated by trypsin treatment and recultured in new culture flasks. This procedure was repeated further twice and more. The culture became a uniform cell cluster. The cell cluster for use in this invention can be stained not less than 97% in accordance with the PAP staining method (peroxidase/[…] staining method) using anti-human glial fibrillar acidic protein (GFAP) rabbit antiserum. The cells will hereinafter be referred to as astroglial cells.
Astroglial cells were innoculated in 24-well plates having a well surface area of 2.1 cm^2 (a product of Falcon Co.) at a cell density of about 3×10^4 cells/well and cultured for 3 days in DMEM medium supplemented with 10% of fetal calf serum. After completing confluency about ([…]), the medium was changed to DMEM medium (0.5 ml/well) supplemented with 0.5% of bovine serum albumin (fraction V) and cultured for 3 days. The culture was further continued with medium changes every 3 days. After cells were practically synchronized in the quiscent stage, the medium was changed to 0.5 ml of the same medium and containing a prescribed concentration of test sample as illustrated in the Tables. NGF in the medium after cultivating for 24 hours was determined by the ELISA as mentioned above. Data are expressed as fold increase in NGF content over that in the absence of the test sample. The lower detection limit of the ELISA is 0.25 pg/ml and the NGF content of control medium was normally 1-10 pg/0.5 ml/well. Data are presented as the mean of four determinations. The results are illustrated in Tables 1-5.

[3] = Table 1, L-M cells, sample concentration 0.2 mM, fold increase over control (1.00)
[4] = Table 1, L-M cells, sample concentration 0.2 mM, control 0.33
[5] = Table 3, sample concentration 0.4 mM, fold increase over control (1.00)
[6] = Table 3, sample concentration 0.4 mM, control 42.3
[7] = Table 3, sample concentration 0.2 mM, fold increase over control (1.00)
[8] = Table 3, sample concentration 0.2 mM, control 42.3
[9] = Table 2, L-M cells, sample concentration 0.2 mM, fold increase over control (1.00)
[10] = Table 2, L-M cells, sample concentration 0.2 mM, control 0.34
[11] = Table 4, sample concentration 0.2 mM, fold increase over control
[12] = Table 4, sample concentration 0.2 mM
[13] = Table 4, sample concentration 0.4 mM, fold increase over control
[14] = Table 4, sample concentration 0.4 mM

Row | SMILES | fold induction at 200 µM [1, 3] | NGF Concentration [1, 4] [ng/well] | fold induction at 400 µM [2, 5] | NGF Concentration [2, 6] [ng/well] | fold induction at 200 µM [1, 9] | NGF Concentration [1, 10] [ng/well] | fold induction at 200 µM [2, 11] | NGF Concentration [2, 12] [ng/well] | also measured
1 | CC(=O)NCCc1ccc(O)c(O)c1 [Compound 1, N-Acetyl-3,4-dihydroxyphenethylamine] | 9.24 | 3.05 | 4.94 | 208.8 | – | – | – | – | –
2 | CCCC(=O)NCCc1ccc(O)c(O)c1 [Compound 3] | 9.64 | 3.18 | – | – | – | – | – | – | fold induction at 200 µM [2, 7]: 3.66; NGF Concentration [2, 8]: 155.0 ng/well
3 | CC(=O)NCCCc1ccc(O)c(O)c1 [Compound 7] | 8.52 | 2.81 | 4.46 | 188.5 | – | – | – | – | –
4 | CC(=O)N(C)CCc1ccc(O)c(O)c1 [Compound 10] | 9.7 | 3.20 | 4.85 | 205.2 | – | – | – | – | –
5 | CCCC(=O)N(C)CCc1ccc(O)c(O)c1 [Compound 12] | 9.15 | 3.02 | 4.89 | 206.7 | – | – | – | – | –
6 | CC(=O)NCCc1ccc(OC(C)=O)c(OC(C)=O)c1 [Compound 13, N-Acetyl-3,4-diacetoxyphenethylamine] | 12.2 | 4.03 | 4.7 | 198.8 | – | – | – | – | –
7 | CCCC(=O)NCCc1ccc(OC(C)=O)c(OC(C)=O)c1 [Compound 15] | 8.94 | 2.95 | – | – | – | – | – | – | fold induction at 200 µM [2, 7]: 3.74; NGF Concentration [2, 8]: 158.2 ng/well
8 | CC(=O)NCCCc1ccc(OC(C)=O)c(OC(C)=O)c1 [Compound 17] | 8.64 | 2.85 | – | – | – | – | – | – | fold induction at 200 µM [2, 7]: 4.27; NGF Concentration [2, 8]: 180.6 ng/well
9 | Br.CCNCCc1ccc(O)c(O)c1 [Compound 19, N-Ethyl-3,4-dihydroxyphenethylamine hydrobromide] | – | 3.50 | 4.17 | 176.3 | – | – | – | – | fold induction at 200 µM [1]: 10.6
10 | CCCCNCCc1ccc(O)c(O)c1 [Compound 21] | – | 3.80 | 4.91 | 207.5 | – | – | – | – | fold induction at 200 µM [1]: 11.5
11 | CNCCCc1ccc(O)c(O)c1 [Compound 26] | 8.61 | 2.84 | 4.17 | 176.5 | – | – | – | – | –
12 | CCCCNCCCc1ccc(O)c(O)c1 [Compound 29] | 8.73 | 2.88 | 4.26 | 180.3 | – | – | – | – | –
13 | CCCCN(C)CCc1ccc(O)c(O)c1 [Compound 32] | – | – | 4.82 | 203.8 | – | – | – | – | –
14 | CCCCN(C)CCc1ccc(OC(C)=O)c(OC(C)=O)c1 [Compound 33] | – | – | 4.74 | 200.6 | – | – | – | – | –
15 | CCOC(=O)CCc1ccc(O)c(O)c1 [Compound 35] | – | – | – | – | 5.82 | 1.98 | 4.63 | 200.1 | –
16 | CCCCOC(=O)CCc1ccc(O)c(O)c1 [Compound 37] | – | – | – | – | 5.44 | 1.85 | 4.83 | 208.5 | –
17 | CCOC(=O)Cc1ccc(O)c(O)c1 [Compound 39] | – | – | – | – | 5.24 | 1.78 | 4.86 | 210.1 | –
18 | CCOC(=O)CCCc1ccc(O)c(O)c1 [Compound 43] | – | – | – | – | 5.53 | 1.88 | 4.59 | 198.5 | –
19 | CCOC(=O)CCc1ccc(OC(C)=O)c(OC(C)=O)c1 [Compound 47, Ethyl 3,4-diacetoxyphenylpropionate] | – | – | – | – | 6.29 | 2.14 | – | – | fold induction at 400 µM [2, 13]: 5.11; NGF Concentration [2, 14]: 220.8 ng/well
20 | CCCCOC(=O)CCc1ccc(OC(C)=O)c(OC(C)=O)c1 [Compound 49] | – | – | – | – | 6.29 | 2.14 | – | – | fold induction at 400 µM [2, 13]: 5.18; NGF Concentration [2, 14]: 223.7 ng/well
21 | CCOC(=O)Cc1ccc(OC(C)=O)c(OC(C)=O)c1 [Compound 51] | – | – | – | – | 5.82 | 1.98 | – | – | fold induction at 400 µM [2, 13]: 4.5; NGF Concentration [2, 14]: 194.6 ng/well
22 | CCOC(=O)CCCc1ccc(OC(C)=O)c(OC(C)=O)c1 [Compound 55] | – | – | – | – | 5.82 | 1.98 | – | – | fold induction at 400 µM [2, 13]: 4.39; NGF Concentration [2, 14]: 189.7 ng/well
23 | NC(=O)CCc1ccc(O)c(O)c1 [Compound 58] | – | – | – | – | 5.53 | 1.88 | 5.32 | 230.0 | –
24 | CCNC(=O)CCc1ccc(O)c(O)c1 [Compound 60] | – | – | – | – | 5.41 | 1.84 | 6.95 | 300.4 | –
25 | CCNC(=O)Cc1ccc(O)c(O)c1 [Compound 64] | – | – | – | – | 5.32 | 1.81 | 4.65 | 200.8 | –
26 | CCNC(=O)CCCc1ccc(O)c(O)c1 [Compound 69] | – | – | – | – | 5.53 | 1.88 | 4.49 | 194.1 | –
27 | CCCCNC(=O)CCc1ccc(O)c(O)c1 [Compound 82] | – | – | – | – | – | – | 8.35 | 360.9 | –
28 | CCCCNC(=O)CCc1ccc(OC(C)=O)c(OC(C)=O)c1 [Compound 83] | – | – | – | – | – | – | – | – | fold induction at 400 µM [2, 13]: 8.82; NGF Concentration [2, 14]: 381.2 ng/well
